Activity calls are given as the source filed them.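 Rule for the calls: active = minimum cell viability of 80% or lower across the dose range, counted as toxic; inactive = minimum cell viability above 80%.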
Assay: viability loss in fusion assay cells – cell-based, MAGI and MAGI-HeLa co-culture, cytotoxicity control for HIV-1 fusion inhibitor project, dose response (AID 2286);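 note: cells exposed to compound for at least 64 h before ATP readout; 100% = median of DMSO vehicle wells with no ATP signal meaning 0%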
Conditions: MAGI-CCR5 cells viability, CellTiter-Glo ATP luminescence; for minimum viability: measured here: MAGI minimum viability across doses
[1] = MAGI-HeLa co-culture viability, at 50 µM, stronger effect = lower value
[2] = at 12.5 µM, stronger effect = lower value
[3] = at 3.13 µM, stronger effect = lower value
[4] = at 1.56 µM, stronger effect = lower value
[5] = at 6.25 µM, stronger effect = lower value

| Compound | viability [1] [%] | viability (at 50 µM (top of the series)) | minimum viability (at 50 µM, stronger effect = lower value) [%] | further results |
| --- | --- | --- | --- | --- |
| N#Cc1c(-c2ccccc2)nc(SCC(=O)Nc2ccc(OC(F)(F)Cl)cc2)[nH]c1=O | 102 | 96.6% (inactive) | – | minimum viability (at 25 µM, stronger effect = lower value): 84.9% |
| CN1C(=O)/C(=C/c2ccc(C(=O)Nc3ccc(O)cc3C(=O)O)cc2)SC1=S | 104 | 91% (inactive) | – | minimum viability [2]: 87.9% |
| O=C1NC(=S)N(c2ccc(F)cc2)C(=O)/C1=C\c1ccoc1 | 99.5 | 84.8% (inactive) | 84.8 | – |
| O=C1N=c2ccc(Br)cc2=C1c1sc(=S)n(NS(=O)(=O)c2ccccc2)c1O | 89.2 | 102% (inactive) | – | minimum viability [3]: 98.5% |
| O=C(O)C1Nc2c(cccc2C(F)(F)F)C2C=CCC12 (configuration not stated) | 124 | 106% (inactive) | – | minimum viability [2]: 86.1% |
| O=C(O)COc1ccc(Br)cc1C(c1c(C(=O)O)[nH]c2ccccc12)c1c(C(=O)O)[nH]c2ccccc12 | 95.6 | 91.8% (inactive) | – | minimum viability (at 25 µM, stronger effect = lower value): 88% |
| O=C(O)c1ccc(Cl)c(S(=O)(=O)Nc2ccccc2C(=O)Nc2ccc(Cl)cc2)c1 | 92.9 | 82.6% (inactive) | 82.6 | – |
| COC(=O)c1sc(-c2ccc(C(C)(C)C)cc2)cc1NC(=O)COCC(=O)O | 89 | – | 74.5 | – |
| CC(Oc1ccc(Cl)cc1Cl)C(=O)Nc1ccc(S(=O)(=O)Nc2cnc3ccccc3n2)cc1 (configuration not stated) | 96.5 | – | 66.7 | – |
| COc1cccc(C2C3=C(N=c4s/c(=C\c5ccc(OCC(=O)O)cc5)c(=O)n42)c2ccccc2CC3)c1 (configuration not stated) | 103 | 90.2% (inactive) | – | minimum viability [2]: 85% |
| O=C(O)CSc1nc(-c2ccc(Cl)cc2)nc2c1oc1ccccc12 | 108 | – | – | viability (at 25 µM (top of the series)): 86.3% (inactive); minimum viability [3]: 86.2% |
| COc1cc(/C=N/Nc2ccc(Cl)c(C(=O)O)c2)ccc1OC(=O)c1ccc(F)cc1 | 103 | 89.8% (inactive) | 89.8 | – |
| COC1C(OC(=O)c2ccc(C)[nH]2)C(O)C(Oc2ccc3c(O)c(NC(=O)c4ccc(O)c(CC=C(C)C)c4)c(=O)oc3c2Cl)OC1(C)C (configuration not stated) | 111 | 81.8% (inactive) | 81.8 | – |
| O=C(O)C(c1ccccc1)N1C(=O)/C(=C\c2ccc(O)c(O)c2)SC1=S (configuration not stated) | 95.1 | 105% (inactive) | – | minimum viability [2]: 99.2% |
| O=C(O)c1ccc(-c2ccc(/C=c3/sc4nc5ccccc5n4c3=O)o2)cc1Cl | 116 | 92.3% (inactive) | – | minimum viability (at 25 µM, stronger effect = lower value): 87.5% |
| CC1(C)CC(=O)C2=C(C1)c1c(ccc3ccccc13)NC2c1cc([N+](=O)[O-])cc([N+](=O)[O-])c1O (configuration not stated) | 107 | – | 56 | – |
| O=C(CCN1C(=O)/C(=C\C=C\c2ccccc2)SC1=S)Nc1ccccc1C(=O)O | 121 | – | 74.5 | – |
| COc1ccc(-c2cc(-c3ccc(Cl)cc3)c(C#N)c(SCC(=O)O)n2)cc1 | 96.4 | 82.1% (inactive) | 82.1 | – |
| O=C(O)c1cc(NN=C2c3ccccc3-c3ccccc32)ccc1Cl | 114 | 93.1% (inactive) | 93.1 | – |
| CC1=C(C#N)C(=O)NC(=O)/C1=C\c1ccc(-c2cc(C)c(C)cc2[N+](=O)[O-])o1 | 107 | 86.5% (inactive) | – | minimum viability [2]: 83.3% |
| COc1cc(/C=C2\C(=N)N3N=C(S(C)(=O)=O)SC3=NC2=O)cc(OC)c1OCCOc1ccccc1C | 124 | 106% (inactive) | – | minimum viability [2]: 102% |
| O=C(O)/C=C/C(=O)Nc1ccc(C2(c3ccc(NC(=O)/C=C/C(=O)O)cc3)c3ccccc3-c3ccccc32)cc1 | 120 | 93.2% (inactive) | – | minimum viability (at 25 µM, stronger effect = lower value): 88.8% |
| O=C(O)c1ccc(-c2ccc(/C=C3\NC(=O)N(Cc4ccc(Cl)cc4)C3=O)o2)cc1Cl | 102 | 107% (inactive) | – | minimum viability [3]: 98.2% |
| N#Cc1c(-c2ccccc2)nc(SCC(=O)N2c3ccccc3Sc3ccccc32)[nH]c1=O | 103 | 85.5% (inactive) | – | minimum viability [4]: 83.6% |
| Cc1ccc(Cl)cc1N1CCN(C(=O)Cc2c(C(=O)O)[nH]c3ccc(Cl)cc23)CC1 | 98.9 | 91.8% (inactive) | – | minimum viability [2]: 85.7% |
| Cc1cc(C)cc(-n2cccc2/C=C2/C(=N)N3C(=NC2=O)SN=C3S(C)(=O)=O)c1 | 116 | 96.8% (inactive) | 96.8 | – |
| Cc1cc(N2C(=O)C(O)=C(C(=O)c3ccc(C)o3)C2c2cccc(Oc3ccccc3)c2)no1 (configuration not stated) | 89 | 82.1% (inactive) | 82.1 | – |

| Compound | viability [1] [%] | viability (at 50 µM (top of the series)) | minimum viability (at 50 µM, stronger effect = lower value) [%] | further results |
| --- | --- | --- | --- | --- |
| O=C(O)CN1C(=O)/C(=C\c2cc(Br)ccc2OCc2ccccc2F)SC1=S | 113 | 101% (inactive) | 101 | – |
| O=C(O)CCN1C(=O)/C(=C\c2cccc(OCC(=O)Nc3ccc(Cl)cc3)c2)SC1=S | 88 | – | 73.5 | – |
| O=C(O)c1cccc(-n2cccc2/C=C2/NC(=O)N(c3ccc(Cl)cc3)C2=O)c1 | 112 | 106% (inactive) | – | minimum viability [4]: 97.5% |
| CCOc1cc(Br)cc(C(c2c(C(=O)O)[nH]c3ccccc23)c2c(C(=O)O)[nH]c3ccccc23)c1O | 100 | 87% (inactive) | – | minimum viability [5]: 82.9% |
| O=C1NN(c2ccc(Cl)c(Cl)c2)C(=O)/C1=C/c1cccc(OC(=O)c2cccs2)c1 | 111 | 90.3% (inactive) | – | minimum viability (at 25 µM, stronger effect = lower value): 86.1% |
| CC(C)S(=O)(=O)C1=NSC2=NC(=O)/C(=C\c3ccc(OC(=O)c4ccco4)cc3)C(=N)N21 | 100 | 103% (inactive) | – | minimum viability [4]: 84.2% |
| O=C(O)c1cccc(N/N=C/c2cc(Br)cc(Br)c2O)c1 | 132 | 127% (inactive) | – | minimum viability [3]: 90.9% |
| O=C(O)c1[nH]c2ccccc2c1C(c1cccc(O)c1)c1c(C(=O)O)[nH]c2ccccc12 | 95.1 | 91.2% (inactive) | – | minimum viability [5]: 86.4% |
| CCCCCC#CCC#CCC#CCC#CCCCC(=O)O | 119 | 94.8% (inactive) | – | minimum viability [3]: 89.9% |
| O=C(NCc1ccccc1)c1ccc2c(=O)[nH]c3c(C(=O)NCC4CCCO4)sc(=S)n3c2c1 (configuration not stated) | 106 | 86.3% (inactive) | 86.3 | – |
| Cc1c(CCC(=O)O)c(=O)oc2c(C)c3occ(-c4ccc(Cl)cc4)c3cc12 | 117 | – | – | minimum viability (at 25 µM, stronger effect = lower value): 64% |
| Oc1c(Br)cc(Br)c(/C=N/n2c(-c3ccccc3)n[nH]c2=S)c1Br | 99.3 | 90.8% (inactive) | 90.8 | – |
| CC(C)COc1ccc(-c2nn(-c3ccccc3)cc2/C=C2/SC(=S)N(CC(=O)O)C2=O)cc1 | 90.2 | 81.5% (inactive) | 81.5 | – |
| O=C(CCN1C(=O)/C(=C/c2ccco2)SC1=S)Nc1ccc(C(=O)O)c(O)c1 | 108 | 90.6% (inactive) | – | minimum viability [2]: 83% |
| Cc1ccc(N2C(=O)/C(=C/c3ccc(CN(CCC#N)S(C)(=O)=O)o3)C(=O)NC2=S)cc1C | 98.6 | 89.2% (inactive) | – | minimum viability [2]: 84.4% |
| O=C(Nc1ccc(C(=O)O)cc1)/C(=C\C=C\c1ccccc1)NC(=O)c1cccc(Br)c1 | 85.1 | 89.9% (inactive) | – | minimum viability [5]: 83.2% |
| Cc1cn2c(N)c(C=C3C=C(Cl)C(=O)C(Cl)=C3)c(=O)nc2s1 | 105 | 83.9% (inactive) | – | minimum viability (at 25 µM, stronger effect = lower value): 81.8% |
| O=C(O)CN1C(=O)/C(=C\c2cccc(OCc3ccc(Cl)cc3Cl)c2)SC1=S | 126 | 95.6% (inactive) | – | minimum viability [2]: 80.7% |
| O=C(N/N=C/c1cc(Cl)cc([N+](=O)[O-])c1O)c1ccccc1NS(=O)(=O)c1cccs1 | 107 | 96.6% (inactive) | – | minimum viability [2]: 92.8% |
| O=C(COc1ccc2ccccc2c1)Nc1cccc(C(=O)Nc2ccccc2C(=O)O)c1 | 101 | 83.3% (inactive) | 83.3 | – |
| COc1ccc(O)c(C(=O)c2cc(SCC(=O)O)c3nc4sc5c(c4c(=O)n3c2)CCCC5)c1 | 122 | 96.7% (inactive) | – | minimum viability [2]: 90.5% |
| COc1cc(/C=N/NS(=O)(=O)c2ccc3ccccc3c2)ccc1OCc1ccc(C(=O)O)cc1 | 115 | 93.7% (inactive) | – | minimum viability (at 25 µM, stronger effect = lower value): 85.7% |
| CC(C)(C)CC(C)(C)c1ccc(OCC(=O)N/N=C/c2ccc(S(=O)(=O)O)o2)cc1 | 104 | 87.8% (inactive) | – | minimum viability [2]: 81.1% |
| COc1cccc(-c2coc3c(C)c4oc(=O)c(CCC(=O)O)c(C)c4cc23)c1 | 83.6 | – | 55.5 | – |
| O=C(CCN1C(=O)/C(=C/c2ccccc2Cl)SC1=S)Nc1ccccc1C(=O)O | 109 | 98.3% (inactive) | – | minimum viability (at 0.78 µM, stronger effect = lower value): 87.5% |
| O=C(O)CSc1ncnc2c1sc1nc(-c3ccccc3)c3c(c12)CCC3 | 111 | 98.6% (inactive) | – | minimum viability [2]: 92.4% |
